According to PubChem BioAssay AID1919015 (Molecular Pharmacology Branch, DTP, NCI, 2023):
Where “and” joins values, the source holds several entries; their conditions need not be identical. Identical values can stand only once.

Test system: OVCAR-5 complex spheroids with HUVEC/MSC, viability, % test/control
Experiment: Anticancer human tumor OVCAR-5 cell line growth inhibition [AhR];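 also: spheroids exposed to compounds for 7 days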;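 as to viability, T/C: 100% = DMSO vehicle control wells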
Details: for viability, T/C: stronger effect = lower value
From the text: Multicellular complex tumor spheroid response to aryl hydrocarbon receptor antagonists in combination with a variety of drugs and investigational agents in selected tumor cell lines
The current study was undertaken to assess response to aryl hydrocarbon receptor antagonists in combination with standard-of-care drugs and investigational agents in solid tumor complex spheroid models. Complex spheroids include a stromal component modeled by human endothelial cells (HUVEC) and fibroblasts modeled by human mesenchymal stem cells (MSCs). The concentration ranges selected for each drug and investigational agent were based upon clinically achievable concentrations if the clinical Cmax of the agent was known.
Compounds. The drugs and investigational agents: BAY 2416964 (NSC825713), GNF351 (NSC835774), CH-223191 (NSC835775), CPI-455 (NSC825282), aza-TdCyd (NSC777586), decitabine (NSC127716), belinostat (NSC758774), entinostat (NSC756642), pevonedistat (NSC761192), tazemetostat (NSC777109), talazoparib (NSC765396), olaparib (NSC753686), selinexor (NSC780203), nedisertib (M3814, NSC802822), bortezomib (NSC756655), venetoclax (NSC766270), doxorubicin (NSC123127), elimusertib (BAY189344, NSC800525), ceralasertib (AZD6738, NSC777638), TAK-243 (NSC785004), alisertib (NSC759677), etoposide (NSC141540), topotecan (NSC609699), eribulin (NSC707389), gemcitabine (NSC613327), carboplatin (NSC241240), cisplatin (NSC119875), and SN-38 (NSC673596) were obtained from the National Cancer Institute (NCI) Developmental Therapeutics Program Chemical Repository (32). The FDA-approved anticancer drug set is available from the Developmental Therapeutics Program at https://dtp.cancer.gov/organization/dscb/obtaining/available plates.htm. […] The stock solutions were prepared in dimethyl sulfoxide (DMSO, Sigma-Aldrich, St. Louis, MO, cat. D2650), except for the platinum compounds which were prepared in saline (Quality Biological, Gaithersburg, MD, cat. 114-055-101), at 800-fold the tested concentration and stored at -70 degrees C prior to their use. All drugs and investigational agents were tested over a range starting from a high concentration at or near the clinical Cmax and decreasing in half-log increments. If the clinical Cmax for an agent had not been determined, the highest concentration tested was 10 microM (Table 1).
Cell Culture. All cells were maintained in an incubator at 37 degrees C and 5% CO2 with 95% humidity. The PDC lines were cultured according to standard operating procedures established by the NCI PDMR (https://pdmr.cancer.gov). Briefly, all PDCs were thawed and cultured in Matrigel-coated flasks prepared with a working solution of 1X Ham's F-12 nutrient mix, without supplementation (Invitrogen, Waltham, MA, cat. 11765054), 100 U/mL penicillin-streptomycin (Invitrogen, cat. 15140122), and 2.5% Matrigel (Corning Inc., Corning, NY, cat. 354248) for the first three passages. All PDCs were cultured in complete DMEM/F-12 media containing advanced DMEM/F-12 (Invitrogen, cat. 12634028), 4.9% defined fetal bovine serum, heat inactivated (HyClone Laboratories Inc., Logan, UT, cat. SH30070.03HI), 389 ng/mL hydrocortisone (Sigma-Aldrich, cat. H4001), 9.7 ng/mL human EGF recombinant protein (Invitrogen, cat. PHG0313), 23.4 microg/mL adenine (Sigma-Aldrich, cat. A2786), 97.3 U/mL penicillin-streptomycin (Invitrogen, cat. 15140122), 1.9 mM L-glutamine (Invitrogen, cat. 25030081), and 9.7 microM Y-27632 dihydrochloride (Tocris Bioscience, Bristol, United Kingdom, cat. 1254). The PDCs were cultured in complete DMEM/F12 media without 10 microM Y-27632 dihydrochloride for at least two passages prior to the screen. The established cell lines NCI-H1341 and […] were cultured in DMEM/F-12, HEPES (Invitrogen, cat. 11330032), 5% defined fetal bovine serum (HyClone Laboratories Inc., cat. SH30070.03), ITS premix universal culture supplement [insulin (5 microg/mL), transferrin (5 microg/mL), and selenious acid (5 ng/mL)] […]

[1] = curve of first compound, second compound 0.1 µM
[2] = curve of first compound, second compound 0.316 µM
[3] = curve of first compound, second compound 1 µM
[4] = curve of first compound, second compound 3.16 µM
[5] = curve of first compound, second compound 10 µM
[6] = second compound 0.1 µM, first compound 0.0316 µM
[7] = second compound 0.1 µM, first compound 0.1 µM
[8] = second compound 0.1 µM, first compound 0.316 µM
[9] = second compound 0.1 µM, first compound 1 µM
[10] = second compound 0.1 µM, first compound 3.16 µM
[11] = second compound 0.1 µM, first compound 10 µM
[12] = second compound 0.316 µM, first compound 0.0316 µM
[13] = second compound 0.316 µM, first compound 0.1 µM
[14] = second compound 0.316 µM, first compound 0.316 µM
[15] = second compound 0.316 µM, first compound 1 µM
[16] = second compound 0.316 µM, first compound 3.16 µM
[17] = second compound 0.316 µM, first compound 10 µM
[18] = second compound 1 µM, first compound 0.0316 µM
[19] = second compound 1 µM, first compound 0.1 µM
[20] = second compound 1 µM, first compound 0.316 µM
[21] = second compound 1 µM, first compound 1 µM
[22] = second compound 1 µM, first compound 3.16 µM
[23] = second compound 1 µM, first compound 10 µM
[24] = second compound 3.16 µM, first compound 0.0316 µM
[25] = second compound 3.16 µM, first compound 0.1 µM
[26] = second compound 3.16 µM, first compound 0.316 µM
[27] = second compound 3.16 µM, first compound 1 µM
[28] = second compound 3.16 µM, first compound 3.16 µM
[29] = second compound 3.16 µM, first compound 10 µM
[30] = second compound 10 µM, first compound 0.0316 µM
[31] = second compound 10 µM, first compound 0.1 µM
[32] = second compound 10 µM, first compound 0.316 µM
[33] = second compound 10 µM, first compound 1 µM
[34] = second compound 10 µM, first compound 3.16 µM
[35] = second compound 10 µM, first compound 10 µM

Compound `COc1cccc2c1C(=O)c1c(O)c3c(c(O)c1C2=O)CC(O)(C(=O)CO)CC3OC1CC(N)C(O)C(C)O1` (stereo unspecified) + Cc1ccccc1N=Nc1ccc(NC(=O)c2ccnn2C)c(C)c1 has an IC50 [1] of 139 nM, an IC50 [2] of 164 nM and an IC50 [3] of 231 nM. The IC50 [4] was 269 nM, the IC50 [5] was 391 nM and the viability, T/C [6] was 60.9%. It also gave a viability, T/C [7] of 48.8%, a viability, T/C [8] of 42.5% and a viability, T/C [9] of 23.8%. For the same compound, the viability, T/C [10] was 1.63%, the viability, T/C [11] was 0.98% and the viability, T/C [12] was 61.6%. The viability, T/C [13] was 51.7%, the viability, T/C [14] was 43.6% and the viability, T/C [15] was 23.7%. It also gave a viability, T/C [16] of 1.72%, a viability, T/C [17] of 1.7% and a viability, T/C [18] of 63.4%. The viability, T/C [19] was 53.2%, the viability, T/C [20] was 48% and the viability, T/C [21] was 22.3%. The viability, T/C [22] was 1.44%, the viability, T/C [23] was 1% and the viability, T/C [24] was 65.3%. For the same compound, the viability, T/C [25] was 59.4%, the viability, T/C [26] was 48% and the viability, T/C [27] was 23%. It also gave a viability, T/C [28] of 1.21%, a viability, T/C [29] of 1.15% and a viability, T/C [30] of 63.4%. It also gave a viability, T/C [31] of 62.2%, a viability, T/C [32] of 55% and a viability, T/C [33] of 25.1%. It also gave a viability, T/C [34] of 1.08% and a viability, T/C [35] of 1.24%.

In the case of `COc1cccc2c1C(=O)c1c(O)c3c(c(O)c1C2=O)CC(O)(C(=O)CO)CC3OC1CC(N)C(O)C(C)O1` (stereo unspecified) + CC(CO)NC(=O)c1cc(-c2ccc(Cl)cc2)nn(-c2cnn(C)c2)c1=O, the IC50 [1] is reported as 267 nM, the IC50 [2] is reported as 285 nM and the IC50 [3] is reported as 347 nM. For the same compound, the IC50 [4] was 351 nM, the IC50 [5] was 326 nM and the viability, T/C [6] was 79.8%. For the same compound, the viability, T/C [7] was 62.8%, the viability, T/C [8] was 50% and the viability, T/C [9] was 23.5%. For the same compound, the viability, T/C [10] was 3.18%, the viability, T/C [11] was 0.94% and the viability, T/C [12] was 80%. It also gave a viability, T/C [13] of 63.9%, a viability, T/C [14] of 50.9% and a viability, T/C [15] of 23.3%. For the same compound, the viability, T/C [16] was 2.8%, the viability, T/C [17] was 0.91% and the viability, T/C [18] was 82.5%. The viability, T/C [19] was 71.5%, the viability, T/C [20] was 53.1% and the viability, T/C [21] was 23.8%. For the same compound, the viability, T/C [22] was 2.66%, the viability, T/C [23] was 0.86% and the viability, T/C [24] was 77%. The viability, T/C [25] was 70.1%, the viability, T/C [26] was 52.7% and the viability, T/C [27] was 22.9%. For the same compound, the viability, T/C [28] was 1.63%, the viability, T/C [29] was 1.01% and the viability, T/C [30] was 72.7%. It also gave a viability, T/C [31] of 76.2%, a viability, T/C [32] of 49.5% and a viability, T/C [33] of 15%. For the same compound, the viability, T/C [34] was 0.79% and the viability, T/C [35] was 1.12%.

With `CCc1c2c(nc3ccc(O)cc13)-c1cc3c(c(=O)n1C2)COC(=O)[C@]3(O)CC` the viability, T/C (compound 0.000949 µM) was 90.5% and 88.5% and 79.2%, the viability, T/C (compound 0.003 µM) was 69% and 69.4% and 60.1% and the viability, T/C (compound 0.00949 µM) was 46% and 36.1% and 40.2%. The viability, T/C (compound 0.03 µM) was 45.3% and 36.5% and 41.5%, the viability, T/C (compound 0.0949 µM) was 28.9% and 21.7% and 21.8% and the viability, T/C (compound 0.3 µM) was 12.1% and 8% and 9.04%. The IC50 (curve of compound) was 13 nM and 7.38 nM and 7.51 nM.

With `CC1(C)CCC(CN2CCN(c3ccc(C(=O)NS(=O)(=O)c4ccc(NCC5CCOCC5)c([N+](=O)[O-])c4)c(Oc4cnc5[nH]ccc5c4)c3)CC2)=C(c2ccc(Cl)cc2)C1` the viability, T/C (compound 0.0316 µM) was 101% and 99.7% and 103%, the viability, T/C (compound 0.1 µM) was 99.9% and 101% and 107% and the viability, T/C (compound 0.316 µM) was 102% and 97.2% and 103%. For the same compound, the viability, T/C (compound 1 µM) was 103% (2×) and 98.7%, the viability, T/C (compound 3.16 µM) was 108% and 98.8% and 114% and the viability, T/C (compound 10 µM) was 92% and 56.4% and 56%. For the same compound, the IC50 (curve of compound) was greater than 10000 nM.

With `COc1ccc([C@@H](O)c2cc(-c3ncnc4cc(N5CCOCC5)ccc34)c(F)cc2Cl)nn1` the viability, T/C (compound 0.0316 µM) was 104% and 96.5% and 91.2%, the viability, T/C (compound 0.1 µM) was 101% and 96.4% and 97.7% and the viability, T/C (compound 0.316 µM) was 95.6% and 86.5% and 85%. For the same compound, the viability, T/C (compound 1 µM) was 76.2% and 70.7% and 63.6%, the viability, T/C (compound 3.16 µM) was 48.4% and 41.8% and 38.3% and the viability, T/C (compound 10 µM) was 23% and 23.6% and 18.7%. The IC50 (curve of compound) was 2930 nM and 2290 nM and 1850 nM.
